What was measured:
Test in all cases: concentration in plasma after dosing
rat [1] = details: dosed: Imazalil, 1.0000000000 mg/kg, iv, male, Sprague-Dawley
rat [2] = details: dosed: Imazalil, 1.0000000000 mg/kg, iv, male, Sprague-Dawley; remark: listed apart in the source
rat [3] = details: Sprague-Dawley
rat [4] = details: dosed: Nilvadipine, 10.0000000000 mg/kg, oral, male, Sprague-Dawley
rat [5] = details: dosed: Propyzamide, 0.6 mg/kg, iv, male, Sprague-Dawley
rat [6] = details: dosed: Propyzamide, 3.2120000000 mg/kg, oral, male, Sprague-Dawley
rat [7] = details: dosed: Propyzamide, 0.6 mg/kg, iv, male, Sprague-Dawley; remark: listed apart in the source
rat [8] = details: dosed: Propyzamide, 3.0000000000 mg/kg, oral, male, Sprague-Dawley
rat [9] = details: dosed: Propyzamide, 3.2120000000 mg/kg, oral, male, Sprague-Dawley; remark: listed apart in the source
rat [10] = details: dosed: Propyzamide, 3.0000000000 mg/kg, oral, male, Sprague-Dawley; remark: listed apart in the source
rat [11] = details: dosed: Propyzamide, 3.0000000000 mg/kg, oral, male, Sprague-Dawley; remark: listed apart in the source
rat [12] = details: dosed: Pyrithiobac sodium, 1.037 mg/kg, oral, male, Sprague-Dawley
rat [13] = details: dosed: Pyrithiobac sodium, 1.037 mg/kg, oral, male, Sprague-Dawley; remark: listed apart in the source

C=CCOC(Cn1ccnc1)c1ccc(Cl)cc1Cl (centres undefined) [Imazalil]
concentration in plasma [ng/mL]
Details	0.5 h	1 h	2 h	4 h	5 min	10 min
rat [1]	33.3	22	6.8	5.3	162	71.5
rat [2]	23.8	12.2	6.6	3.4	125	73.5

concentration in plasma [ng/mL], rat [3], dosed: Imazalil, male
Details	0.25 h	0.5 h	1 h	2 h	4 h	5 min	10 min
1.0000000000 mg/kg, iv	–	25.6	20.7	7.2	3.6	139	63.9
5.0000000000 mg/kg, oral	9.7	11.4	7.9	1	–	–	–

COC(=O)C1=C(C#N)NC(C)=C(C(=O)OC(C)C)C1c1cccc([N+](=O)[O-])c1 (centres undefined) [Nilvadipine]
rat [4]
Details	concentration in plasma [ng/mL]
0.25 h	271
0.5 h	160
1 h	75.8
2 h	99.2
4 h	27.8
6 h	22.1
8 h	15
10 h	1.26

concentration in plasma [ng/mL], rat [3], dosed: Nilvadipine
Details	0.25 h	0.5 h	1 h	2 h	4 h	5 min	6 h	8 h	10 h
0.1000000000 mg/kg, iv, female	16	8	4.43	2.48	0.674	27.3	–	–	–
0.1000000000 mg/kg, iv, male	11.8	7.16	3.5	2.19	0.824	29.2	0.387	–	–
10.0000000000 mg/kg, oral, male	34.6	44.3	14.6	10.7	3.01	–	4.89	2.84	12.2

C#CC(C)(C)NC(=O)c1cc(Cl)cc(Cl)c1 [Propyzamide]
concentration in plasma [ng/mL]
Details	rat [5]	rat [6]	rat [7]	rat [8]	rat [9]	rat [10]	rat [11]
0.25 h	–	228	–	62.6	217	125	43.1
0.5 h	46.9	302	65.8	83.7	244	118	104
1 h	23.8	262	49.6	61.9	205	90.6	75.4
2 h	9.3	158	19.8	29.5	98.2	50.7	46.3
4 h	1.2	234	7.8	49.3	159	17.4	54
5 min	119	–	156	–	–	–	–
8 h	1.4	116	–	50.9	148	24.1	44.1
10 min	122	–	131	–	–	–	–
12 h	–	–	0.6	6.1	–	8.2	8.2
24 h	–	3.06	–	–	2.89	–	1.5
48 h	–	0.269	–	–	0.376	–	–
72 h	–	0.0997	–	–	0.0426	–	–

rat [3], dosed: Propyzamide, male
Details	concentration in plasma [ng/mL]
0.25 h, 3.0000000000 mg/kg, oral	96.6
0.25 h, 3.2120000000 mg/kg, oral	252
0.5 h, 0.6 mg/kg, iv	47.6
0.5 h, 3.0000000000 mg/kg, oral	130
0.5 h, 3.2120000000 mg/kg, oral	359
1 h, 0.6 mg/kg, iv	15.1
1 h, 3.0000000000 mg/kg, oral	103
1 h, 3.2120000000 mg/kg, oral	323
2 h, 3.0000000000 mg/kg, oral	58.4
2 h, 3.2120000000 mg/kg, oral	153
4 h, 0.6 mg/kg, iv	3.1
4 h, 3.0000000000 mg/kg, oral	39.7
4 h, 3.2120000000 mg/kg, oral	174
5 min, 0.6 mg/kg, iv	165
8 h, 3.0000000000 mg/kg, oral	49.7
8 h, 3.2120000000 mg/kg, oral	83.5
10 min, 0.6 mg/kg, iv	117
12 h, 3.0000000000 mg/kg, oral	16.8
24 h, 3.0000000000 mg/kg, oral	1.2
24 h, 3.2120000000 mg/kg, oral	2.23
48 h, 3.2120000000 mg/kg, oral	0.327
72 h, 3.2120000000 mg/kg, oral	0.0846

COc1cc(OC)nc(Sc2cccc(Cl)c2C(=O)[O-])n1.[Na+] [Pyrithiobac sodium]
concentration in plasma [ng/mL]
Details	0.25 h	0.5 h	1 h	2 h	4 h	8 h	24 h
rat [12]	1400	1190	1270	331	154	65.6	1.06
rat [13]	1380	1560	1090	437	112	31.9	0.833

rat [3], dosed: Pyrithiobac sodium, 1.037 mg/kg, oral, male
Details	concentration in plasma [ng/mL]
0.25 h	1080
0.5 h	1060
1 h	1190
2 h	458
4 h	126
8 h	37
24 h	0.55
72 h	0.206

From EPA's CvTdb concentration-time database (doi:10.1093/toxsci/kfy020)
